What was measured:
P. aeruginosa = assay: Test A: antibiotic sensitivity in contaminated urine, tetrazolium violet colour change; assay type: cell-based; conditions: urine with 10^5 cfu/mL P. aeruginosa, 37° C. 10 hours; μg/ml: nitrofurantoin 64, pivmecillinam 4, trimethoprim 1, cephalexin 16, ciprofloxacin 0.25
K. pneumoniae = assay: Test D: antibiotic sensitivity in contaminated urine, tetrazolium violet colour change; assay type: cell-based; conditions: urine with 10^5 cfu/mL K. pneumoniae, 37° C. 10 hours; μg/ml: nitrofurantoin 64, pivmecillinam 4, trimethoprim 8, cephalexin 32, ciprofloxacin 0.25
Description: Each test tube contained 0.04 mg tetrazolium violet, 6.6 mg Wilkins Chalgren media. The test chambers also contained an amount of antibiotic compound as indicated in the tables below (as concentration in final volume of urine).
For each example, 0.2 mL of a urine sample was contaminated with 10^5 cfu/mL of the specified bacteria was poured into each test tube. The resultant composition was incubated at 37° C. for 10 hours. FIGS. 3A to 3F show the test tubes after the incubation period.

SMILES	infection treatable or resistant (FIG. 4A) (P. aeruginosa)	infection treatable or resistant (FIG. 4D) (K. pneumoniae)
O=C(O)c1cn(C2CC2)c2cc(N3CCNCC3)c(F)cc2c1=O [ciprofloxacin]	can be treated	can be treated
COc1cc(Cc2cnc(N)nc2N)cc(OC)c1OC [trimethoprim]		can be treated
